For 40 compounds, IC50 results are on record in patent US10703764B2, “Benzopiperazine compositions as BET bromodomain inhibitors” (FORMA Therapeutics, Inc., priority 2013, dated 2020).

One experiment concerns the target T1, BRD4 BD1 (Homo sapiens, UniProt O60885).
T1 construct: made in house
Kind of experiment: AlphaScreen binding assay, BRD4 Bromodomain 1. The method in brief:
(§1)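 An AlphaScreen competition format was used with His-BRD4 BD1 or BD2 and biotin-H4 K5/8/12/16-acetyl peptide, each at matched final levels of 50 nM (BD1) or 100 nM (BD2). Incubation in HEPES/NaCl buffer with 0.1% BSA and 0.01% Triton X-100 ran ≥1 h before IC50 determination.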

A further experiment has as its system MV4-11 cells. Kind of experiment: Oncology cell growth assay (3-day proliferation, CellTiter-Glo). It is filed as cell-based. The following applies: Homo sapiens, MV4-11, 72 h, AML cell line MV4-11, 72 hours, compounds grouped by IC50 range, read-out: MV4-11 IC50 (inhibition of proliferation, gIC50). In a few lines: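 A 3-day proliferation test used MV4-11 cells seeded at 3000 per well with eight compound concentrations (10 μM top, 3-fold dilution) at 37° C in 5% CO2. CellTiter-Glo luminescence defined viable cell signal. A four-parameter logistic curve against DMSO and background wells gave the gIC50.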

The target of a further experiment is T2, BRD4 BD2 (Homo sapiens, UniProt O60885).
T2 construct: made in house
Kind of experiment: AlphaScreen binding assay, BRD4 Bromodomain 2. In a few lines:
as §1

Molecules are shown by their SMILES.

`CC(=O)N1c2ccc(-c3ccc(S(=O)(=O)CCO)cc3)cc2N(C(=O)OC(C)C)C[C@@H]1C` [Example I-478]: the values for the IC50 at BRD4 BD1, in the experiment on MV4-11 cells and at BRD4 BD2 were 0.1 to 1 µM, 0.1 to 0.5 µM and 0.05 to 0.5 µM, respectively.
The like results for `CC(C)OC(=O)N1C[C@H](C)N(C(=O)C2CC2)c2ccc(-c3ccc(S(=O)(=O)CCO)cc3)cc21` [Example I-479] were, in that order, 0.1 to 1 µM, more than 0.5 µM and more than 0.5 µM.
For `CC(C)OC(=O)N1C[C@H](C)N(C(=O)C2CC2)c2ccc(-c3cn(C)nn3)cc21` [Example I-482], the IC50 was 0.1 to 1 µM at BRD4 BD1, more than 0.5 µM with MV4-11 cells and more than 0.5 µM on BRD4 BD2.
Consider `COC(=O)N1c2ccc(-c3ccc(N4CCS(=O)(=O)CC4)cc3)cc2N(C(=O)OC(C)C)C[C@@H]1C` [Example I-483], for which the IC50 on BRD4 BD1 is 0.1 to 1 µM; in the experiment with MV4-11 cells, more than 0.5 µM; on BRD4 BD2, 0.05 to 0.5 µM.
The like results for `COC(=O)N1c2ccc(-c3cnc(N)cn3)cc2N(C(=O)OC(C)C)C[C@@H]1C` [Example I-485] were, in that order, 0.1 to 1 µM, more than 0.5 µM and 0.05 to 0.5 µM.
For the compound `COC(=O)N1c2ccc(-c3cn(C)nn3)cc2N(C(=O)OC(C)C)C[C@@H]1C` [Example I-490], the IC50 on BRD4 BD1 is 0.1 to 1 µM; in the experiment on MV4-11 cells, more than 0.5 µM; at BRD4 BD2, 0.05 to 0.5 µM.
`CC(=O)N1c2ccc(-c3ccc(S(C)(=O)=O)cc3)cc2N(C(=O)OC2CCC2)C[C@@H]1C` [Example I-493]: the IC50 on BRD4 BD1 lay within 0.1 to 1 µM; with MV4-11 cells it was 0.1 to 0.5 µM; at BRD4 BD2, 0.05 to 0.5 µM.
As for `CCC(C)OC(=O)N1C[C@H](C)N(C(C)=O)c2ccc(-c3ccc(S(C)(=O)=O)cc3)cc21` (stereo partly drawn) [Example I-494], the figures for the IC50 at BRD4 BD1, in the experiment on MV4-11 cells and at BRD4 BD2 were 0.1 to 1 µM, 0.1 to 0.5 µM and 0.05 to 0.5 µM, respectively.
Regarding `CC(=O)N1c2ccc(-c3ccc(S(C)(=O)=O)cc3)cc2N(C(=O)OCC2CC2)C[C@@H]1C` [Example I-495], the IC50 at BRD4 BD1 is 0.1 to 1 µM; in the experiment on MV4-11 cells, 0.1 to 0.5 µM; at BRD4 BD2, more than 0.5 µM.
With `CC(=O)N1c2ccc(-c3ccc(S(C)(=O)=O)cc3)cc2N(C(=O)OC2CCOCC2)C[C@@H]1C` [Example I-496], the IC50 lay in the range of 0.1 to 1 µM on BRD4 BD1, 0.1 to 0.5 µM in the experiment on MV4-11 cells and 0.05 to 0.5 µM on BRD4 BD2.
`CC(=O)N1c2ccc(-c3ccc(C(=O)N4CCNCC4)cc3)cc2N(C(=O)OC2CCOCC2)C[C@@H]1C` [Example I-498]: the IC50 was in the range of 0.1 to 1 µM at BRD4 BD1, 0.1 to 0.5 µM in the experiment with MV4-11 cells and 0.05 to 0.5 µM at BRD4 BD2.
Regarding `CC(=O)N1c2ccc(-c3cnn(C4CC4)c3)cc2N(C(=O)Oc2ccc(F)cc2F)C[C@@H]1C` [Example I-499], the values for the IC50 at BRD4 BD1, in the experiment on MV4-11 cells and at BRD4 BD2 were 0.1 to 1 µM, 0.1 to 0.5 µM and 0.05 to 0.5 µM, respectively.
In the same order, the values of `COc1cccc(OC(=O)N2C[C@H](C)N(C(C)=O)c3ccc(-c4cnn(C5CC5)c4)cc32)c1` [Example I-500] are 0.1 to 1 µM, 0.1 to 0.5 µM and 0.05 to 0.5 µM.
In the case of `CC(=O)N1c2ccc(-c3cnn(C4CC4)c3)cc2N(C(=O)Oc2cccc(C#N)c2)C[C@@H]1C` [Example I-501], the IC50 on BRD4 BD1 lay in the range of 0.1 to 1 µM; with MV4-11 cells, 0.1 to 0.5 µM; at BRD4 BD2 it was 0.05 to 0.5 µM.
Take `CC(=O)N1c2ccc(-c3cnn(C4CC4)c3)cc2N(C(=O)Oc2cccc(F)c2)C[C@@H]1C` [Example I-502]: the results for the IC50 on BRD4 BD1, with MV4-11 cells and on BRD4 BD2 were 0.1 to 1 µM, 0.1 to 0.5 µM and 0.05 to 0.5 µM, respectively.
On to `CC(=O)N1c2ccc(-c3cnn(C4CC4)c3)cc2N(C(=O)Oc2cc(F)ccc2F)C[C@@H]1C` [Example I-503], for which the IC50 fell in the range of 0.1 to 1 µM on BRD4 BD1, 0.1 to 0.5 µM in the experiment on MV4-11 cells and 0.05 to 0.5 µM at BRD4 BD2.
`CC(=O)N1c2ccc(-c3cnn(C4CC4)c3)cc2N(C(=O)Oc2ccc(C)cc2Cl)C[C@@H]1C` [Example I-504]: the values for the IC50 on BRD4 BD1, in the experiment with MV4-11 cells and at BRD4 BD2 were 0.1 to 1 µM, 0.1 to 0.5 µM and 0.05 to 0.5 µM, respectively.
Regarding `COc1cc(C)ccc1OC(=O)N1C[C@H](C)N(C(C)=O)c2ccc(-c3cnn(C4CC4)c3)cc21` [Example I-506], the IC50 on BRD4 BD1 was 0.1 to 1 µM; in the experiment with MV4-11 cells it was less than 0.1 µM; at BRD4 BD2, 0.05 to 0.5 µM.
The like results for `COc1ccc(C)cc1OC(=O)N1C[C@H](C)N(C(C)=O)c2ccc(-c3cnn(C4CC4)c3)cc21` [Example I-508] were, in that order, 0.1 to 1 µM, 0.1 to 0.5 µM and 0.05 to 0.5 µM.
As for `CC(=O)N1c2ccc(-c3cnn(C4CC4)c3)cc2N(C(=O)Oc2ccccc2C)C[C@@H]1C` [Example I-509], the figures for the IC50 at BRD4 BD1, in the experiment on MV4-11 cells and at BRD4 BD2 were 0.1 to 1 µM, 0.1 to 0.5 µM and 0.05 to 0.5 µM, respectively.
On to `CC(=O)N1c2ccc(-c3cnn(C4CC4)c3)cc2N(C(=O)Oc2cccnc2)C[C@@H]1C` [Example I-510], for which the IC50 on BRD4 BD1 is less than 0.1 µM; with MV4-11 cells, 0.1 to 0.5 µM; at BRD4 BD2, less than 0.05 µM.
The like results for `CC(=O)N1c2ccc(-c3cnn(C4CC4)c3)cc2N(C(=O)Oc2ccc(C)nc2)C[C@@H]1C` [Example I-511] were, in that order, less than 0.1 µM, 0.1 to 0.5 µM and less than 0.05 µM.
For `CC(=O)N1c2ccc(-c3cnn(C4CC4)c3)cc2N(C(=O)Oc2ccc3ncccc3c2)C[C@@H]1C` [Example I-512], the values for the IC50 at BRD4 BD1, with MV4-11 cells and at BRD4 BD2 were less than 0.1 µM, less than 0.1 µM and less than 0.05 µM, respectively.
On to `CC(=O)N1c2ccc(-c3cnn(C4CC4)c3)cc2N(C(=O)Oc2ccc3nc(C)ccc3c2)C[C@@H]1C` [Example I-513], for which the IC50 was 0.1 to 1 µM at BRD4 BD1, less than 0.1 µM in the experiment with MV4-11 cells and 0.05 to 0.5 µM on BRD4 BD2.
Turning to `CC(=O)N1c2ccc(-c3cnn(C4CC4)c3)cc2N(C(=O)Oc2cccc3ccc(C)nc23)C[C@@H]1C` [Example I-515], the IC50 on BRD4 BD1 is 0.1 to 1 µM; in the experiment on MV4-11 cells it was less than 0.1 µM; at BRD4 BD2 it was 0.05 to 0.5 µM.
Regarding `CC(=O)N1c2ccc(-c3cnn(C4CC4)c3)cc2N(C(=O)Oc2cccc(C)c2)C[C@@H]1C` [Example I-517], the IC50 is 0.1 to 1 µM on BRD4 BD1, less than 0.1 µM in the experiment with MV4-11 cells and 0.05 to 0.5 µM on BRD4 BD2.
In the case of `CC(=O)N1c2ccc(-c3cnn(C4CC4)c3)cc2N(C(=O)Oc2cccc(Cl)c2)C[C@@H]1C` [Example I-518], the results for the IC50 on BRD4 BD1, in the experiment on MV4-11 cells and at BRD4 BD2 were 0.1 to 1 µM, 0.1 to 0.5 µM and 0.05 to 0.5 µM, respectively.
For `CC(=O)N1c2ccc(-c3cnn(C4CC4)c3)cc2N(C(=O)Oc2ccccc2F)C[C@@H]1C` [Example I-519], the figures for the IC50 at BRD4 BD1, with MV4-11 cells and at BRD4 BD2 were 0.1 to 1 µM, less than 0.1 µM and 0.05 to 0.5 µM, respectively.
For the compound `COc1ncccc1OC(=O)N1C[C@H](C)N(C(C)=O)c2ccc(-c3cnn(C4CC4)c3)cc21` [Example I-521], the IC50 was less than 0.1 µM at BRD4 BD1, less than 0.1 µM in the experiment with MV4-11 cells and less than 0.05 µM at BRD4 BD2.
As for `COc1c(OC(=O)N2C[C@H](C)N(C(C)=O)c3ccc(-c4cnn(C5CC5)c4)cc32)ccnc1C` [Example I-522], the IC50 was 0.1 to 1 µM at BRD4 BD1, less than 0.1 µM with MV4-11 cells and 0.05 to 0.5 µM on BRD4 BD2.
In the same order, the values of `COc1ccc(OC(=O)N2C[C@H](C)N(C(C)=O)c3ccc(-c4cnn(C5CC5)c4)cc32)c(F)c1` [Example I-523] are 0.1 to 1 µM, less than 0.1 µM and 0.05 to 0.5 µM.
Turning to `COc1ccc(F)c(OC(=O)N2C[C@H](C)N(C(C)=O)c3ccc(-c4cnn(C5CC5)c4)cc32)c1` [Example I-524], the IC50 on BRD4 BD1 is 0.1 to 1 µM; with MV4-11 cells, less than 0.1 µM; on BRD4 BD2 it was 0.05 to 0.5 µM.
In the same order, the values of `COc1ccc(C#N)cc1OC(=O)N1C[C@H](C)N(C(C)=O)c2ccc(-c3cnn(C4CC4)c3)cc21` [Example I-526] are 0.1 to 1 µM, 0.1 to 0.5 µM and 0.05 to 0.5 µM.
Consider `CC(=O)N1c2ccc(-c3cnn(C4CC4)c3)cc2N(C(=O)Oc2ccc3ncsc3c2)C[C@@H]1C` [Example I-527], for which the IC50 on BRD4 BD1 was 0.1 to 1 µM; in the experiment on MV4-11 cells, less than 0.1 µM; at BRD4 BD2 it was 0.05 to 0.5 µM.
Regarding `COc1cc(Cl)ccc1OC(=O)N1C[C@H](C)N(C(C)=O)c2ccc(-c3cnn(C4CC4)c3)cc21` [Example I-529], the results for the IC50 at BRD4 BD1, in the experiment with MV4-11 cells and at BRD4 BD2 were 0.1 to 1 µM, less than 0.1 µM and less than 0.05 µM, respectively.
In the case of `COc1ccc(Cl)cc1OC(=O)N1C[C@H](C)N(C(C)=O)c2ccc(-c3cnn(C4CC4)c3)cc21` [Example I-530], the results for the IC50 at BRD4 BD1, in the experiment on MV4-11 cells and on BRD4 BD2 were 0.1 to 1 µM, less than 0.1 µM and 0.05 to 0.5 µM, respectively.
Consider `CC(=O)N1c2ccc(-c3ccc(C(=O)N4CC[C@@H](N)C4)cc3)cc2N(C(=O)OC(C)C)C[C@@H]1C` [Example I-532], for which the figures for the IC50 on BRD4 BD1, with MV4-11 cells and at BRD4 BD2 were 0.1 to 1 µM, 0.1 to 0.5 µM and 0.05 to 0.5 µM, respectively.
Regarding `CC(=O)N1c2ccc(-c3ccc(C(=O)NCCN(C)C)cc3)cc2N(C(=O)OC(C)C)C[C@@H]1C` [Example I-533], the results for the IC50 on BRD4 BD1, with MV4-11 cells and on BRD4 BD2 were 0.1 to 1 µM, less than 0.1 µM and 0.05 to 0.5 µM, respectively.
`CC(=O)N1c2ccc(-c3ccc(C(=O)NCC(N)=O)cc3)cc2N(C(=O)OC(C)C)C[C@@H]1C` [Example I-534]: the figures for the IC50 at BRD4 BD1, in the experiment with MV4-11 cells and on BRD4 BD2 were 0.1 to 1 µM, 0.1 to 0.5 µM and 0.05 to 0.5 µM, respectively.
The like results for `CCN(CC)C(=O)c1ccc(-c2ccc3c(c2)N(C(=O)OC(C)C)C[C@H](C)N3C(C)=O)cc1` [Example I-536] were, in that order, 0.1 to 1 µM, 0.1 to 0.5 µM and less than 0.05 µM.
